The values that follow come from patent US10160755B2 (Plexxikon Inc., priority 2015, dated 2018).

One test deals with T1, FLT3-ITD (Homo sapiens, UniProt P36888).
T1 construct: FLT3-ITD; Invitrogen #PV6190
T1 sequence (P36888 1-993): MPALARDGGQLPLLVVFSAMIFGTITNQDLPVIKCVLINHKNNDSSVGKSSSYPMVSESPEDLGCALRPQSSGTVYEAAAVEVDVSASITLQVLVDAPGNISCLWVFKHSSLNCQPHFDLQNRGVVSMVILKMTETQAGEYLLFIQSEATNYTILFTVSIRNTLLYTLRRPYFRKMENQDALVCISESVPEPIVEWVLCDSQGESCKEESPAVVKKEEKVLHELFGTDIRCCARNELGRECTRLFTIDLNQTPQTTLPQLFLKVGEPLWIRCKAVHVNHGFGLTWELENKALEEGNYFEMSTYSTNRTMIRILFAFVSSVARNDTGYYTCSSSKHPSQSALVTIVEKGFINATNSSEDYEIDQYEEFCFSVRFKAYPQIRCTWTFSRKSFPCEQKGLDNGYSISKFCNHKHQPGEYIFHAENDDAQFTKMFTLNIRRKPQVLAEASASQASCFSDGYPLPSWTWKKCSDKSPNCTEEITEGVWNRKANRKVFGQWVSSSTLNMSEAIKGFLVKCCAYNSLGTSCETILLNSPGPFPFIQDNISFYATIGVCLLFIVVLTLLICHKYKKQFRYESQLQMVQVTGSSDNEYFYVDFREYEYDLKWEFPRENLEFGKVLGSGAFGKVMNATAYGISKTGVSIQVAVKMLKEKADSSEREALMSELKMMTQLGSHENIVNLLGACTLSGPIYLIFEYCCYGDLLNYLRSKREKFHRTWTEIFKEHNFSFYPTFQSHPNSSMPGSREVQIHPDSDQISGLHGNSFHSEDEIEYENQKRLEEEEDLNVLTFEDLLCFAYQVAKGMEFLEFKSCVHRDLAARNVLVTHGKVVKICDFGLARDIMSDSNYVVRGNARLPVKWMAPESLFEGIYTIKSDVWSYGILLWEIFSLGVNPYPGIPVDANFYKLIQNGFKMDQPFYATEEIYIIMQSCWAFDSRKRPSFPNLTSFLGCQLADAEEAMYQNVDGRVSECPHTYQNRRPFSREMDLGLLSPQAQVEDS
The experiment in a line: FLT3-ITD biochemical kinase assay (AlphaScreen). A digest of the protocol: (§1)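 Compounds were tested against recombinant enzyme using AlphaScreen detection of tyrosine-phosphorylated biotin-poly(Glu4-Tyr) (30 nM final). The ATP concentration differed by construct: 10 μM for D835Y, 100 μM for ITD.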
On the technique in general: Bead proximity is the source of the signal in Alpha formats.

Another test deals with T2, FLT3-D835Y (Homo sapiens, UniProt P36888, D835Y).
T2 construct: purchased Invitrogen PV3967
T2 sequence (P36888 27-993 D835Y): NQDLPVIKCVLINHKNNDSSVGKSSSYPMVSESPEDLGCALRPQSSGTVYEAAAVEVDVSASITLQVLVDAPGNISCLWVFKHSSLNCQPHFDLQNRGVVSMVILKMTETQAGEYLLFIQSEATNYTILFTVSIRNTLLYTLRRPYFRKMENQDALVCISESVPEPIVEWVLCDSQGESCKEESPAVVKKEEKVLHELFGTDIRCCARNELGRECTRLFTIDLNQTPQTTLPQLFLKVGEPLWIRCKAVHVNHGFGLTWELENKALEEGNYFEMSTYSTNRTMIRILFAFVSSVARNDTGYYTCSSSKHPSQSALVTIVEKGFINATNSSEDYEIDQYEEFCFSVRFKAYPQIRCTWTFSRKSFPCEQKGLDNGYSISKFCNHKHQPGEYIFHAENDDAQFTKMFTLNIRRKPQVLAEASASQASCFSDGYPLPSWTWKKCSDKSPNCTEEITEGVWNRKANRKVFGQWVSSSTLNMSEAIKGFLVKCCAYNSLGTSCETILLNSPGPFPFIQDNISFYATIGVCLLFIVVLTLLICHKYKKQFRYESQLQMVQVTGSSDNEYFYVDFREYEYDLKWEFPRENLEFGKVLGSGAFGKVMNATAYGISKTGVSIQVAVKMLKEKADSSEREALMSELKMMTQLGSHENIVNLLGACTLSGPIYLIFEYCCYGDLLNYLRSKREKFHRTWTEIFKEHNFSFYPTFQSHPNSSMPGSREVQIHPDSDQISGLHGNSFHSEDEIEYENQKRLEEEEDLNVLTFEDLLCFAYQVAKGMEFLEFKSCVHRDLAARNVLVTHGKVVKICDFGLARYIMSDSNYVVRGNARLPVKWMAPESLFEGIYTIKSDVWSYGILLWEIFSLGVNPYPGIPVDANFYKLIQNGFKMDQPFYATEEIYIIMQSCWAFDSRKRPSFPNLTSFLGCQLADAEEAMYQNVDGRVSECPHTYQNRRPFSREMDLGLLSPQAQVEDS
The experiment in a line: FLT3-D835Y biochemical kinase assay (AlphaScreen). A digest of the protocol:
as §1

For another test, the target named is c-Kit (Homo sapiens, UniProt P10721). The test can be described thus: c-Kit biochemical assay (per US 2007/0032519). A digest of the protocol: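 Biochemical kinase inhibition run per US 2007/0032519; values reported as binned IC50 ranges (0.0001–1 μM, 1–10 μM, 10–200 μM).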
Chain of c-Kit (P10721 26-976): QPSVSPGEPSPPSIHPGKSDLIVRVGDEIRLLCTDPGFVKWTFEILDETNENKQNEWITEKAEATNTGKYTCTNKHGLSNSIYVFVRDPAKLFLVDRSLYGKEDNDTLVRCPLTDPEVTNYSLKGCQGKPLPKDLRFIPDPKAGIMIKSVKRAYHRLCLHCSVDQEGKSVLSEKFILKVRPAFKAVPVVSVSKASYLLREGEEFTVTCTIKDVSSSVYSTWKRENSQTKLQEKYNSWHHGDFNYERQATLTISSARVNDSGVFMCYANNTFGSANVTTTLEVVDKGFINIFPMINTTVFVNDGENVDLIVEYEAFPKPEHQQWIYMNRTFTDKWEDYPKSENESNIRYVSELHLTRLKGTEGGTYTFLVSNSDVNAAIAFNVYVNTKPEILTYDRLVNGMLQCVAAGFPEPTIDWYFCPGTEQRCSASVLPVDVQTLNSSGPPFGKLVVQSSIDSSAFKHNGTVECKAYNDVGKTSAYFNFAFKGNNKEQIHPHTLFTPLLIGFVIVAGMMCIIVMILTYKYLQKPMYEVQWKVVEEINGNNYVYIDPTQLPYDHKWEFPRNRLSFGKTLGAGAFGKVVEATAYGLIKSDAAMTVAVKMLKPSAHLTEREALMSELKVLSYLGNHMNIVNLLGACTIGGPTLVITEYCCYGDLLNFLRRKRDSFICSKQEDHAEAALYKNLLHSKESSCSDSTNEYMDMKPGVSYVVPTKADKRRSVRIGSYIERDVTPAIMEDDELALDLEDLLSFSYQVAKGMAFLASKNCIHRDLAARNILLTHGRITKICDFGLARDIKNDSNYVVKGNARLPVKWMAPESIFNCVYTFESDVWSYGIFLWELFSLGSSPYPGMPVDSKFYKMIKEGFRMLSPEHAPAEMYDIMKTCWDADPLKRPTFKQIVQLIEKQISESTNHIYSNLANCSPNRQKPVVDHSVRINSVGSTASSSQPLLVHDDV

Take `COc1ccc(-c2cnc3[nH]cc(-c4ccc5ncn(C)c5c4)c3c2)cn1` [P-040, 5-(6-methoxy-3-pyridyl)-3-(3-methylbenzimidazol-5-yl)-1H-pyrrolo[2,3-b]pyridine]: the values for the IC50 against FLT3-ITD, against FLT3-D835Y and on c-Kit were 0.0001 to 1 µM, 0.0001 to 1 µM and 1 to 10 µM, respectively.
Consider `Cn1cnc2ccc(-c3c[nH]c4ncc(C#N)cc34)cc21` [P-020, 3-(3-methylbenzimidazol-5-yl)-1H-pyrrolo[2,3-b]pyridine-5-carbonitrile], for which the figures for the IC50 against FLT3-ITD, on FLT3-D835Y and on c-Kit were 0.0001 to 1 µM, 0.0001 to 1 µM and 10 to 200 µM, respectively.
In the case of `Cn1cnc2ccc(-c3c[nH]c4ncccc34)cc21` [P-009, 1-methyl-6-(1H-pyrrolo[2,3-b]pyridin-3-yl)benzimidazole], the IC50 – broadly, the point on the concentration scale where inhibition reaches its midpoint – fell in the range of 0.0001 to 1 µM against FLT3-ITD, 0.0001 to 1 µM at FLT3-D835Y and 1 to 10 µM at c-Kit.
Consider `c1cnc2[nH]cc(-c3ccc4[nH]cnc4c3)c2c1` [P-004, 3-(1H-benzimidazol-5-yl)-1H-pyrrolo[2,3-b]pyridine], for which the IC50 against FLT3-ITD was in the range of 1 to 10 µM; against FLT3-D835Y, 0.0001 to 1 µM; against c-Kit it was 1 to 10 µM.
In the case of `CS(=O)(=O)Nc1cccc(-c2cnc3[nH]cc(-c4ccc5c(c4)OCCO5)c3n2)c1` [P-059, N-[3-[7-(2,3-dihydro-1,4-benzodioxin-6-yl)-5H-pyrrolo[2,3-b]pyrazin-2-yl]phenyl]methanesulfonamide], the IC50 at FLT3-ITD lay in the range of 0.0001 to 1 µM; at FLT3-D835Y, 0.0001 to 1 µM; against c-Kit, 10 to 200 µM.
As for `CS(=O)(=O)Nc1cccc(-c2cnc3[nH]cc(-c4ccc5c(c4)N(CC(F)(F)F)CCO5)c3n2)c1` [P-087, N-[3-[7-[4-(2,2,2-trifluoroethyl)-2,3-dihydro-1,4-benzoxazin-6-yl]-5H-pyrrolo[2,3-b]pyrazin-2-yl]phenyl]methanesulfonamide], the IC50 against FLT3-ITD was 0.0001 to 1 µM; on FLT3-D835Y, 0.0001 to 1 µM; at c-Kit, 10 to 200 µM.
Turning to `CC(C)(O)C#Cc1cnc2[nH]cc(-c3ccc4ncn(C(C)(C)C)c4c3)c2n1` [P-377, 4-[7-(3-tert-butylbenzimidazol-5-yl)-5H-pyrrolo[2,3-b]pyrazin-2-yl]-2-methyl-but-3-yn-2-ol], the IC50 was 0.0001 to 1 µM at FLT3-ITD, 0.0001 to 1 µM on FLT3-D835Y and 1 to 10 µM on c-Kit.
`c1cnc2[nH]cc(-c3ccc4[nH]nnc4c3)c2c1` [P-005, 5-(1H-pyrrolo[2,3-b]pyridin-3-yl)-1H-benzotriazole]: the values for the IC50 against FLT3-ITD, on FLT3-D835Y and at c-Kit were 1 to 10 µM, 10 to 200 µM and 10 to 200 µM, respectively.
As to `COc1cnc2[nH]cc(-c3ccc4ncsc4c3)c2c1` [P-029, 6-(5-methoxy-1H-pyrrolo[2,3-b]pyridin-3-yl)-1,3-benzothiazole], the results for the IC50 against FLT3-ITD, at FLT3-D835Y and against c-Kit were 0.0001 to 1 µM, 0.0001 to 1 µM and 1 to 10 µM, respectively.
Consider `Cn1cnc2ccc(-c3c[nH]c4ncc(-c5cccc(NS(C)(=O)=O)c5)cc34)cc21` [P-037, N-[3-[3-(3-methylbenzimidazol-5-yl)-1H-pyrrolo[2,3-b]pyridin-5-yl]phenyl]methanesulfonamide], for which the IC50 against FLT3-ITD is 0.0001 to 1 µM; at FLT3-D835Y, 0.0001 to 1 µM; on c-Kit, 10 to 200 µM.
Regarding `c1nc2cc(-c3c[nH]c4ncc(-c5cnc(C6CC6)nc5)cc34)ccc2[nH]1` [P-027, 3-(1H-benzimidazol-5-yl)-5-(2-cyclopropylpyrimidin-5-yl)-1H-pyrrolo[2,3-b]pyridine], the IC50 on FLT3-ITD, against FLT3-D835Y and against c-Kit was 0.0001 to 1 µM each time.
`O=S(=O)(C1CC1)N1CC=C(c2cnc3[nH]cc(-c4ccc5[nH]cnc5c4)c3c2)CC1` [P-031, 3-(1H-benzimidazol-5-yl)-5-(1-cyclopropylsulfonyl-3,6-dihydro-2H-pyridin-4-yl)-1H-pyrrolo[2,3-b]pyridine]: the IC50 lay in the range of 0.0001 to 1 µM on FLT3-ITD, 1 to 10 µM against FLT3-D835Y and 1 to 10 µM on c-Kit.
